Patent US20130253015A1, “Cyclodextrin-Based Microemulsions, and Dermatological Uses Thereof” (PRECISION DERMATOLOGY, INC., priority 2012, published 2013)

Experiments:
[1] = Solubility/dispersibility of retinol in Labrasol-HPGCD-water microemulsion systems; format: physicochemical
From the text: Drug used: 1. Solid Retinol (98%) from Sigma, 2.
Cyclodextrin used: hydroxypropyl-X-cyclodextrin (X=alpha, beta, or gamma).

[2] = cited from earlier work

## CC1=C(/C=C/C(C)=C/C=C/C(C)=C/CO)C(C)(C)CCC1 [solid retinol, Retinol]
[1]; cyclodextrin-based microemulsions of the invention
  amount of retinol that can be incorporated into cyclodextrin-based microemulsions: greater than 1.0 wt %
[1]; final retinol concentration 1.2%, clear transparent system (FIG. 4(b), 4(c))
  miscibility in Labrasol-HPGCD-water microemulsion system: complete miscibility
[2]
  miscibility in water: immiscible in water
